Patent US6384085B1, “Material separated from Ecklonia cava, method for extracting and purifying the same, and use thereof as antioxidants” (Ventree Co., Ltd., priority 2000, dated 2002)

Key:
[1] = Antioxidative activity: DPPH radical scavenging activity according to the Blois method; format: biochemical; conditions: 10 min reaction, absorbance at 517 nm
Experimental: (§1) The antioxidative activity of the novel compound obtained through the extraction and purification process is evaluated by measuring its radical scavenging activity against 1,1-diphenyl-2-picrylhydrazyl (DPPH), which has free radicals attached thereto, according to the Blois method. A thermal stability of the compound of interest can be evaluated by measuring its antioxidative activity at plural temperature points.
(§2) Dicaval C obtained in Example 3 was measured for antioxidative activity according to the Blois method. For this, an examination was made of the radical scavenging activity of the compound against 1,1-diphenyl-2-picrylhydrazyl (DPPH) to which free radicals were attached. First, 20 mg of DPPH was dissolved in 150 ml of ethanol to prepare a DPPH solution. To 600 μl of the DPPH solution was added 250 μl of dimethylsulfoxide (DMSO), diluted with an appropriate amount of ethanol and shaken for 10 seconds, after which this control was adjusted, in absorbance at 517 nm, from 0.94 to 0.97. To 1 ml of the DPPH solution which was adjusted from 0.94 to 0.97 likewise, each of the samples (μg to mg) was added and then, reacted for 10 min, followed by measuring the absorbance of the solution. The antioxidative activity of each of the samples was determined by the DPPH radical scavenging activity which was represented by a reduced absorbance compared with that of the control.

[2] = Thermal stability: antioxidative activity (DPPH) after heating for 1 hour; format: physicochemical
Experimental: as §1, §2
50 μg of Dicaval C obtained in Example 3 was heated at 40° C., 60° C., 80° C., and 100° C. for 1 hour to measure antioxidative activity.

[3] = 50 μg heated at 40 °C for 1 hour
[4] = 50 μg heated at 60 °C for 1 hour
[5] = 50 μg heated at 80 °C for 1 hour
[6] = 50 μg heated at 190 °C [sic] for 1 hour

Structure (SMILES)	DPPH radical scavenging activity (antioxidative activity) ([1]; sample amount 10 μg) [%]	DPPH radical scavenging activity (antioxidative activity) ([1]; sample amount 20 μg) [%]	DPPH radical scavenging activity (antioxidative activity) ([1]; sample amount 100 μg) [%]	Antioxidativity (Absorb. change) [2, 3]	Notes (thermal stability) [2, 3]	Antioxidativity (Absorb. change) [2, 4]	Notes (thermal stability) [2, 4]	Antioxidativity (Absorb. change) [2, 5]	Notes (thermal stability) [2, 5]	Antioxidativity (Absorb. change) [2, 6]	Notes (thermal stability) [2, 6]
O=C1O[C@H]([C@@H](O)CO)C(O)=C1O [Ascorbic acid, reference compound]	100	100	100	–	–	–	–	–	–	–	–
Oc1cc(O)cc(Oc2cc(O)c(O)c3c2Oc2c(O)cc(O)cc2O3)c1 [Dicaval C]	82	100	100	0.87	Stable	0.86	Stable	0.89	Stable	0.88	Stable
